These results are taken from patent US8475940B2, “Anthracene derivative and light-emitting device” (Toppan Printing Co., Ltd., priority 2009, dated 2013).

Series [1] is described as follows: Energy level: ionization potential of spin coat film by surface analyzer AC-1, electron affinity by subtracting absorption-edge energy. Format: physicochemical. The conditions noted are these: for Eg: energy difference between ionization potential and electron affinity; for electron affinity: ionization potential minus absorption-edge energy; for ionization potential: spin coat film on ITO glass, surface analyzer AC-1. Here is the method: A solution prepared by dissolving 1.3 mg of the compound 1 in 1 ml of toluene was applied to an ITO transparent electroconductive glass by spin coating to measure the ionization potential by a surface analyzer AC-1 manufactured by Riken Keiki Co., Ltd., to find that the ionization potential was 5.9 eV.
A solution prepared by dissolving 10 mg of the isomer component 1 of the compound 2 in 1 ml of toluene was applied to an ITO transparent electroconductive glass by spin coating to measure the ionization potential by a surface analyzer AC-1 manufactured by Riken Keiki Co., Ltd., to find that the ionization potential was 5.9 eV.
A solution prepared by dissolving 10 mg of the compound 1 in 1 ml of toluene was applied to an ITO transparent electroconductive glass by spin coating to measure the ionization potential by a surface analyzer AC-1 manufactured by Riken Keiki Co., Ltd., to find that the ionization potential was 5.9 eV. The electron affinity obtained by subtracting the absorption-edge energy from the ionization potential was 3.0 eV.
A solution prepared by dissolving 10 mg of the compound 31 in 1 ml of toluene was applied to an ITO transparent electroconductive glass by spin coating to measure the ionization potential by a surface analyzer AC-1 manufactured by Riken Keiki Co., Ltd., to find that the ionization potential was 6.2 eV. The electron affinity obtained by subtracting absorption-edge energy from the ionization potential was 3.0 eV.
A solution prepared by dissolving 10 mg of the compound 32 in 1 ml of toluene was applied to an ITO transparent electroconductive glass by spin coating to measure the ionization potential by a surface analyzer AC-1 manufactured by Riken Keiki Co., Ltd., to find that the ionization potential was 6.2 eV. The electron affinity obtained by subtracting absorption-edge energy from the ionization potential was 3.0 eV.

Series [2] in a line: Fluorescent spectrum of spin coat film (fluorophotometer RF-5300PC). Format: physicochemical. As to conditions: for fluorescent peak wavelength: single-compound spin coat film on ITO transparent electroconductive glass, excitation 330-340 nm. Here is the method:
The fluorescent spectrum of a spin coat film of the compound 31 on an ITO transparent electroconductive glass was measured. The results correspond to a graph (0 wt %) of FIG. 8. The measurement was made by a fluorophotometer (trade name: RF-5300PC, manufactured by Shimadzu Corporation). The compound 31 emitted blue light having a fluorescent peak wavelength of 422 nm.
First, a fluorescent spectrum obtained when a film formed in a thickness of 41 nm by applying a solution of the compound 32 to the surface of an ITO transparent electroconductive glass by spin coating was excited by 340 nm light was obtained (solid line in FIG. 10). The measurement was made by a fluorophotometer (trade name: RF-5300PC, manufactured by Shimadzu Corporation). Blue light emission having a fluorescent peak wavelength of 424 nm was obtained.
A fluorescent spectrum obtained when a film was formed in the same manner as above by doping the compound 32 with 5 wt % of the compound 2 was measured in the same manner as above. The results are shown by the dotted line in FIG. 10. The fluorescent peak wavelength was 453 nm and pure blue light emission was obtained which was more intensified than the case where the compound 32 was not doped with the compound 2.
Xylene solutions containing only the compound 31, only the compound 33, and a mixture of the compound 31:compound 33:compound 3 (10:2:1 ratio by weight) such that each solid content was 2 wt % were respectively applied to a quarts plate by spin coating (rotated at 500 rpm for 5 sec and then at 1200 rpm for 60 sec) to form films having almost the same thickness, thereby measuring a fluorescent spectrum.

The nature of series [3]: Solubility in toluene / organic solvents at ambient temperature. Type of series: physicochemical. The conditions noted are these: for solubility (concentration dissolved in toluene): ambient temperature; for solubility in organic solvents: aromatic solvents such as xylene, anisole, tetralin. Here is the method: The compound 1 was dissolved with a concentration of 1.3 mg in 1 ml of toluene at ambient temperature and used as a light-emitting dopant for a blue light-emitting layer ink, which could be applied to form a film.
The isomer component 1 of compound 2 was dissolved in a concentration of 34 mg in 1 ml of toluene at ambient temperature and used for ink that formed each layer of an organic EL as a carrier transport layer, each color light-emitting host and light-emitting dopant, thereby enabling the formation of a coating film.
The compound 3 was dissolved in a concentration of 150 mg in 1 ml of toluene at ambient temperature and used for ink that formed each layer of an organic EL as a carrier transport layer, each color light-emitting host, or blue light-emitting dopant, thereby enabling the formation of a coating film.
Further, the compound 31 can be dissolved in various mixture solvents to be matched with the viscosities of various printing systems.
The compound 32 was soluble in a concentration of 6 mg in 1 ml of toluene at ambient temperature. When the compound 32 was gradually added to dissolve while heating on a hot plate, 34 mg of the compound 32 was dissolved when the temperature was returned to ambient temperature. The compound 32 can be used as an electron transportable carrier transport material and may be dissolved in an organic solvent such as toluene, xylene, anisole, and tetralin to add the obtained solution to ink for forming each layer of an organic EL, thereby forming a coating film.

Series [4] in a line: Thermal analysis by DSC (glass transition temperature). Type of series: physicochemical. The conditions noted are these: for thermal stability: second heatup after rapid cooling, no exothermic or endothermic peak except Tg. Here is the method:
The glass transition temperature (Tg), crystallization temperature (Tc), and melting point (Tm) of the compound 1 were measured by EXSTAR6000 Series DSC6200 manufactured by Seiko Instruments Inc., at a temperature rise rate of 20° C./min. […] Tm was 493° C. to 513° C. (peak 504° C.).
The glass transition temperature (Tg), crystallization temperature (Tc), and melting point (Tm) of the isomer component 1 of the compound 2 were measured by an EXSTAR6000Series DSC6200 manufactured by Seiko Instruments Inc., at a temperature rise rate of 20° C./min.
The Tg, Tc, and Tm of the compound 33 measured by DSC were 240° C., 323° C., and 403° C. respectively.
(In general: Differential scanning calorimetry records heat flow against a reference as temperature is scanned.)

A short description of series [5]: Optical deterioration of fluorescent intensity of film under 340 nm irradiation. Type of series: physicochemical. The conditions noted are these: irradiated with 340 nm light for 1,000 sec, slit 1.5 nm. Here is the method: A film of the ink was formed on an ITO transparent electroconductive glass by spin coating and the fluorescent spectrum intensity was measured by a fluorophotometer (trade name: RF-5300PC, manufactured by Shimadzu Corporation) at an excitation spectrum of 340 nm.
Using a fluorophotometer (trade name: RF-5300PC, manufactured by Shimadzu Corporation) wherein the width of the slit for excitation light was changed to 1.5 nm, this light emitting film was successively irradiated with light having a wavelength of 340 nm for 1,000 sec, with the result that a single film of the isomer component 1 of the compound 2 was decreased in fluorescent intensity to 57% of the initial intensity and the single film of BTrSBF was decreased to 64% of the initial intensity whereas the film obtained by doping BTrSBF with 5 wt % of the compound 2 kept 74% of the initial intensity, showing that this film had the effect of suppressing the optical deterioration of fluorescent intensity.

The conditions of series [6]: background section, DSC; cited from earlier work.

Molecules are shown by their SMILES. Several values for one entry are separate records, joined by “and”; a condition that tells them apart may be missing. Equal entries are not always repeated.

For `Cc1ccc2c(-c3ccccc3-c3ccc(-c4nc(-c5ccc(C(C)(C)C)cc5)nc(-c5ccc(C(C)(C)C)cc5)n4)cc3)c3ccccc3c(-c3ccccc3-c3ccc(-c4nc(-c5ccc(C(C)(C)C)cc5)nc(-c5ccc(C(C)(C)C)cc5)n4)cc3)c2c1` [compound 2, 2-methyl-9,10-bis{4-[2,4-bis(4-tert-butylphenyl)-1,3,5-triazine-6-yl]biphenyl-2′-yl}anthracene], the Eg entry in series [1] is “about 2.9 eV”. Besides, the fluorescent peak wavelength in series [2] was 454 nm.

As to `CC(C)(C)c1ccc(-c2nc(-c3ccc(-c4ccccc4-c4c5ccccc5c(-c5ccccc5-c5ccc(-c6nc(-c7ccc(C(C)(C)C)cc7)nc(-c7ccc(C(C)(C)C)cc7)n6)cc5)c5cc(C(C)(C)C)ccc45)cc3)nc(-c3ccc(C(C)(C)C)cc3)n2)cc1` [compound 3, 2-tert-butyl-9,10-bis{4-[2,4-bis(4-tert-butylphenyl)-1,3,5-triazine-6-yl]biphenyl-2′-yl}anthracene], the “solubility (concentration dissolved in toluene)” value in series [3] (toluene) is on record as 150 mg in 1 ml. Moreover, the fluorescent peak wavelength in series [2] was determined as 453 nm. In addition, the “thermal stability” value in series [4] is on record as “thermally very stable”.

For the compound `CC(C)(C)c1ccc(-c2nc(-c3ccc(-c4ccccc4-c4c5ccccc5c(-c5ccccc5-c5ccc(-c6nc(-c7ccc(C(C)(C)C)cc7)nc(-c7ccc(C(C)(C)C)cc7)n6)cc5)c5ccccc45)cc3)nc(-c3ccc(C(C)(C)C)cc3)n2)cc1` [compound 1, 9,10-bis{4-[2,4-bis(4-tert-butylphenyl)-1,3,5-triazine-6-yl]biphenyl-2′-yl}anthracene], in series [3] (toluene), the “solubility (concentration dissolved in toluene)” value worked out at 1.3 mg in 1 ml. In series [1], the electron affinity is 2.9 eV and 3.0 eV; the ionization potential was determined as 5.9 eV. In addition, the fluorescent peak wavelength in series [2] amounted to 448 nm.

As to `Cc1ccc2c(-c3ccccc3-c3ccc(-c4nc(-c5ccc(C(C)(C)C)cc5)nc(-c5ccc(C(C)(C)C)cc5)n4)cc3)c3ccccc3c(-c3ccccc3-c3ccc(-c4nc(-c5ccc(C(C)(C)C)cc5)nc(-c5ccc(C(C)(C)C)cc5)n4)cc3)c2c1` (single isomer, unassigned) [isomer component 1 of the compound 2, 2-methyl-9,10-bis{4-[2,4-bis(4-tert-butylphenyl)-1,3,5-triazine-6-yl]biphenyl-2′-yl}-anthracene], the “solubility (concentration dissolved in toluene)” value in series [3] (toluene) is 34 mg in 1 ml. In series [1], the electron affinity came to 2.9 eV and the ionization potential stood at 5.9 eV. Besides, in series [4], the “thermal stability” value was “thermally very stable”. For the same compound, the fluorescent intensity remaining in series [5] is listed as 57 % of the initial intensity.

For `Cc1ccc(-c2nc(-c3ccc(C)cc3)nc(-c3ccc(-c4ccc5c(c4)C4(c6ccccc6-5)c5ccccc5-c5ccc(-c6ccc(-c7nc(-c8ccc(C)cc8)nc(-c8ccc(C)cc8)n7)cc6)cc54)cc3)n2)cc1` [compound 32], the “amount dissolved after heating on a hot plate and return to ambient temperature” value in series [3] (1 ml of toluene, gradually added while heating, returned to ambient temperature) is 34 mg. The “solubility (concentration dissolved in toluene)” value in series [3] (toluene) turned out to be 6 mg in 1 ml. In series [1], this compound gave an electron affinity of 3.0 eV and an ionization potential of 6.2 eV. In addition, the fluorescent peak wavelength in series [2] was 424 nm.

On to `CC(C)(C)c1ccc2c(c1)c1cc(C(C)(C)C)ccc1n2-c1ccc(-c2cc(-c3ccc(-n4c5ccc(C(C)(C)C)cc5c5cc(C(C)(C)C)ccc54)cc3)cc(-c3ccc(-n4c5ccc(C(C)(C)C)cc5c5cc(C(C)(C)C)ccc54)cc3)c2)cc1` [compound 33, 1,3,5-tris(4-(3,6-di-tert-butyl-N-carbazolyl)phenyl)benzene], for which the “solubility in organic solvents” value in series [3] (toluene) is reported as “easily soluble”. Besides, in series [3] (toluene, xylene, tetralin or mixture solvent), the “amount dissolved in general organic solvent” value is listed as at least 10 wt %. In series [1], this compound gave an electron affinity of 2.8 eV and an ionization potential of 6.2 eV. In series [2] (spin coat film from xylene solution on quartz plate), this compound showed a fluorescent peak of 380 nm. The “glass transition temperature (Tg)” value in series [4] (DSC, temperature rise rate 20° C./min) was determined as 240 °C.

Consider `CC(C)(C)c1ccc2c(-c3ccc4ccccc4c3)c3ccccc3c(-c3ccc4ccccc4c3)c2c1` [TBDNA, 9,10-di(2-naphthyl)-2-tertiarybutylanthracene], for which the “glass transition temperature (Tg) of prior-art material” value in series [6] was “about 128 °C”.

For the compound `CC(C)(C)c1ccc2c(-c3ccccc3-c3ccccc3)c3ccccc3c(-c3ccccc3-c3ccccc3)c2c1` [TBBPA, 9,10-di(biphenyl-2-yl)-2-t-butylanthracene], the “glass transition temperature (Tg) of prior-art material” value in series [6] was “about 74 °C”.

With `CC(C)(C)c1ccc(-c2nc(-c3ccc(-c4ccc5c(c4)C4(c6ccccc6-5)c5ccccc5-c5ccc(-c6ccc(-c7nc(-c8ccc(C(C)(C)C)cc8)nc(-c8ccc(C(C)(C)C)cc8)n7)cc6)cc54)cc3)nc(-c3ccc(C(C)(C)C)cc3)n2)cc1` [compound 31, 2,2′-bis(4-(2,4-bis(4-tert-butylphenyl)-1,3,5-triazine-6-yl)phenyl)-9,9′-spirobifluorene], in series [3] (toluene), the “solubility in organic solvents” value is listed as “easily soluble” and the “solubility (concentration dissolved in toluene)” value was determined as 0.4 g in 1 ml. In addition, in series [1], the Eg is reported as 3.2 eV, the electron affinity was found to be 3.0 eV and the ionization potential came out at 6.2 eV. In addition, the fluorescent peak wavelength in series [2] is recorded as 422 nm. In addition, the “thermal stability” value in series [4] is listed as “thermally stable glass-like material”. In addition, the fluorescent intensity remaining in series [5] is given as 64 % of the initial intensity.
